# Laboratory results from ChEMBL document CHEMBL4229523, “Monoterpene's multiple free radical scavenging capacity as compared with the radioprotective agent cysteamine and amifostine” (Bioorg Med Chem Lett, 2018).
# Experiments:
# Type in all cases: functional
# [1] = Antioxidant activity assessed as trolox equivalent of singlet oxygen scavenging activity by TMPD spin trap-based ESR spectrometric method
# [2] = Antioxidant activity assessed as trolox equivalent of methyl radical scavenging activity by DMPO spin trap-based ESR spectrometric method
# [3] = Antioxidant activity assessed as trolox equivalent of tert-butyl peroxyl radical scavenging activity by CYPMPO spin trap-based ESR spectrometric method
# [4] = Antioxidant activity assessed as trolox equivalent of superoxide radical scavenging activity by CYPMPO spin trap-based ESR spectrometric method
# [5] = Antioxidant activity assessed as trolox equivalent of hydroxyl radical scavenging activity by DMPO spin trap-based ESR spectrometric method
# [6] = Antioxidant activity assessed as trolox equivalent of alkoxyl radical scavenging activity by DMPO spin trap-based ESR spectrometric method
# [7] = Antioxidant activity assessed as rate of methyl radical scavenging activity by DMPO spin trap-based ESR spectrometric method
Structure (SMILES),Activity [1],Activity [2],Activity [3],Activity [4],Activity [5],Activity [6],K [7]
C=CC(C)(O)CCC=C(C)C (configuration not stated),0.046 equiv,0 equiv,0 equiv,0.27 equiv,0.38 equiv,0.045 equiv,–
Cc1ccc(C(C)C)c(O)c1,0.16 equiv,0 equiv,0.22 equiv,0.24 equiv,0.3 equiv,0.013 equiv,–
NCCCNCCSP(=O)(O)O,0.17 equiv,0.2 equiv,0.058 equiv,0.3 equiv,0.76 equiv,0.054 equiv,2.8 ×10⁶ /M/s
CC1CCC(C(C)C)C(O)C1 (configuration not stated),0.22 equiv,0 equiv,0.31 equiv,0.39 equiv,0.49 equiv,0 equiv,–
NCCS,1.1 equiv,0.18 equiv,0.08 equiv,0.13 equiv,1.5 equiv,0.045 equiv,2.5 ×10⁶ /M/s
